In series [1] the test system is human neutrophil elastase. The series is described as follows: SPR interaction with neutrophil elastase. In kind it is binding. The settings on record: for SPR binding to neutrophil elastase (in words): peptide immobilized on CM4 chip; for ka, association rate constant / kd, dissociation rate constant: protease 1 nM to 5 μM. The procedure: (§1) The interaction of the peptides with serine proteinases (trypsin, α-chymotrypsin, human neutrophil elastase, pancreatic kallikrein and cathepsin G) was studied using the surface plasmon resonance (SPR) method. The peptides were immobilized on a CM4 sensor chip. […] Kinetic parameters were calculated at 25 °C. Obtained data indicated the formation of tight complexes and eliminated non-specific binding (Table 2).
(§2) The study of the interaction of serine proteinases with rHCIQ2c1 and rHCIQ4c7 was performed on SPR biosensor Biacore 3000 (GE Healthcare, USA) running under the program “Biacore 3000 Control Software v.1.0”. The evaluation of data was carried out using “Biacore Evaluation v.4.1”. Peptides were covalent immobilized on carboxymethylated surface of the Biacore CM4 sensor chip (GE Healthcare, USA) activated by EDC/NHS (N-hydroxysuccinimide/1-ethyl-3-(3-dimethylaminopropyl)carbodiimide hydrochloride) mixture by the injection of peptide solution (100 µg/ml) in 10 mM sodium acetate (pH 5.5) during 10 min with flow rate 5 µl/min. Quantities of immobilized peptides were 970 RU (resonance units, 1 RU corresponds 1 pg peptide) for rHCIQ2c1 and 460 RU for rHCIQ4c7. In all of the experiments, the flow cell 1 (Fc1) without the immobilized polypeptides was considered as the reference cell for the correction of the signal responses. HBS (HEPES buffered saline-NaCl): 0.15 M NaCl, 0.01 M HEPES, pH 7.4 (cat. no. BR-1003-69, GE Healthcare, USA) was used as the running buffer for the SPR assays. Protease solutions at concentrations from 1 nM to 5 μM were passed through measuring and control biosensor cells at 25 °C during 5 min with a flow rate 5 µl/min. Further complex breakdown was recorded during at most 10 min. After each cycle of SPR measurement, the sensing surface was regenerated by the injection of 50 mM NaOH for 0.5 min at a flow rate of 50 μl/min. Changes in Gibbs free energy (ΔG) at 25 °C were calculated by the following equation:1 ΔG=RTlnKD, where KD is the dissociation constant. Changes in enthalpy (ΔH) and entropic term (−TΔS) were calculated from the linear equation:2 ΔG=ΔH−TΔS, using the liner approximation of temperature dependence of ΔG (Van’t Hoff diagram).
A general note: Surface plasmon resonance follows binding to a sensor surface in real time, without labels.

Series [2] relates to Shaker IR. Kind of series: Two-electrode voltage clamp, Shaker IR in X. laevis oocytes. The settings on record: 10 μM, 18–22 °C, n ≥ 3. In kind it is cell-based, Drosophila. How it is done:
(§3) For the expression of the voltage-gated potassium channels (rKv1.1, rKv1.2, hKv1.3, rKv1.4, rKv1.5, rKv1.6, Shaker IR and hERG) in X. laevis oocytes, the linearized plasmids were transcribed using the T7 or SP6 mMESSAGE-mMACHINE transcription kit (Ambion, USA). The harvesting of stage V–VI oocytes from an anaesthetized female X. laevis frog was previously described. Oocytes were injected with 50 nl of cRNA at a concentration of 1 ng/nl using a micro-injector (Drummond Scientific, USA). The oocytes were incubated in a solution containing (in mM): NaCl, 96; KCl, 2; CaCl2, 1.8; MgCl2, 2; HEPES, 5 (pH 7.4), supplemented with 50 mg/l gentamycin sulfate.
(§4) Two-electrode voltage-clamp recordings were performed at room temperature (18–22 °C) using a Geneclamp 500 amplifier (Molecular Devices, USA) controlled by a pClamp data acquisition system (Axon Instruments, USA), as described in[47]. Whole cell currents from oocytes were recorded 1–4 days after injection. Bath solution composition was ND96 (in mM): NaCl, 96; KCl, 2; CaCl2, 1.8; MgCl2, 2 and HEPES, 5 (pH 7.4). Voltage and current electrodes were filled with 3 M KCl. The resistances of both electrodes were kept between 0.7 and 1.5 MΩ. […] All data were analysed using pClamp Clampfit 10.0 (Molecular Devices, Downingtown, PA, USA) and Origin 7.5 software (Originlab, Northampton, MA, USA).
Background: Two-electrode voltage clamp is typically applied to oocytes expressing channels or transporters.

For series [3], the system named is rKv1.1. Kind of series: Two-electrode voltage clamp, rKv1.1 in X. laevis oocytes. In kind it is cell-based. The settings on record: 10 μM, 18–22 °C, n ≥ 3. How it is done:
as §3, §4

Series [4] concerns hERG. Kind of series: Two-electrode voltage clamp, hERG in X. laevis oocytes. The conditions noted are these: 10 μM, 18–22 °C, n ≥ 3. It is filed as cell-based. The procedure:
as §3, §4

The test system of series [5] is rKv1.2. Kind of series: Two-electrode voltage clamp, rKv1.2 in X. laevis oocytes. In kind it is cell-based. The settings on record: 10 μM, 18–22 °C, n ≥ 3. The procedure: as §3, §4
In series [6] the test system is rKv1.4. The series is described as follows: Two-electrode voltage clamp, rKv1.4 in X. laevis oocytes. It is filed as cell-based. The conditions noted are these: 10 μM, 18–22 °C, n ≥ 3. How it is done:
as §3, §4

Series [7] deals with murine neuroblastoma Neuro2a cells. Kind of series: 6-OHDA-induced cytotoxicity, cell viability (MTT). In kind it is cell-based. The settings on record: for Increase of cell viability relative to cells treated with 6-OHDA: 10 μM peptide, 30 min before 6-OHDA 25 µM, mean of three independent experiments. How it is done:
Effects of rHCIQ2c1 and rHCIQ4c7 were studied using murine neuroblastoma Neuro2a cells in the presence of 6-OHDA (25 µM). After incubation of Neuro2a cells with recombinant peptides and 6-OHDA for 24 h, the cell viability was evaluated using MTT assay.
The cytoprotective activities of peptides was examined, as described previously. Neuro2a murine neuroblastoma cells (ATCC CCL-131) (American Type Culture Collection, Virginia, USA) were cultivated in DMEM medium (BioloT, Russia) with 10% of fetal bovine serum (FBS, BioloT, Russia) and 80 µg/ml gentamicine (BioloT, Russia). The cells were seeded onto 96-well plate at concentration of 1 × 10^3 cells per well. Substances were added at different concentrations, and then cells were incubated for 30 min at 37 °C and 5% CO2. Cells were treated with 6-OHDA (25 μM) for 24 h at 37 °C with 5% CO2. Thereafter, medium was replaced with clean serum-free medium, and cells were treated with 3-(4,5-dimethylthiazol-2-yl)-2,5-diphenyltetrazolium bromide (MTT) for 4 h[77]. Then the medium was collected and whole cells were lysed in 100% dimethylsulfoxide (DMSO), the absorbance was measured at 570 nm using Multiscan FC (Thermo Fisher Scientific, USA). […] The results were expressed as the mean ± SD of three independent experiments.

In series [8] the test system is rKv1.5. The series is described as follows: Two-electrode voltage clamp, rKv1.5 in X. laevis oocytes. It is filed as cell-based. The settings on record: 10 μM, 18–22 °C, n ≥ 3. The procedure: as §3, §4
Series [9] relates to rKv1.6. The series is described as follows: Two-electrode voltage clamp, rKv1.6 in X. laevis oocytes. It is filed as cell-based. The settings on record: 10 μM, 18–22 °C, n ≥ 3. How it is done: as §3, §4
Series [10] relates to pancreatic kallikrein. Kind of series: SPR interaction with pancreatic kallikrein. The conditions noted are these: for SPR binding to kallikrein (in words): peptide immobilized on CM4 chip. In kind it is binding. The procedure: as §1, §2
Where [11] appears, read: neutrophil elastase, SPR Biacore 3000, peptide immobilized on CM4 chip, HBS pH 7.4, 25 °C.
[12] abbreviates: kallikrein, SPR Biacore 3000, peptide immobilized on CM4 chip, HBS pH 7.4, 25 °C, protease 1 nM to 5 μM.

No end group written: not given here.

For the substance “rHCIQ2c1: recombinant Kunitz-peptide of Heteractis crispa, most prevalent isoform, mature peptide 58 aa, expressed in E. coli (IQGNICSEPKKVGRCRGSFPRFYFDSETGKCTPFIYGGCGGNGNNFETLHACRAICRA; ends and bridges not checked; cysteine pairing not given here)”, the “SPR binding to neutrophil elastase (in words)” value in series [1] (SPR) is recorded as “specifically binds to all target proteinases”. Moreover, in series [1] (setting [11]), the “KA, association constant” value is 7.9e+06 M⁻¹; the “ka, association rate constant” value was found to be 68000 s/M; the “kd, dissociation rate constant” value is 0.00861 s⁻¹. In series [2], the “Activity on Shaker IR” value was “neither 10 μM of rHCIQ2c1 nor rHCIQ4c7 exerted any activity on the Kv channels”. In series [3], the “Activity on Kv1.1” value was “neither 10 μM of rHCIQ2c1 nor rHCIQ4c7 exerted any activity on the Kv channels”. Besides, the “Activity on hERG” value in series [4] is “neither 10 μM of rHCIQ2c1 nor rHCIQ4c7 exerted any activity on the Kv channels”. Moreover, in series [5], the “Activity on Kv1.2” value is given as “neither 10 μM of rHCIQ2c1 nor rHCIQ4c7 exerted any activity on the Kv channels”. Besides, in series [6], the “Activity on Kv1.4” value is recorded as “neither 10 μM of rHCIQ2c1 nor rHCIQ4c7 exerted any activity on the Kv channels”. The “Increase of cell viability relative to cells treated with 6-OHDA” value in series [7] (24 h, MTT) was 47%. In series [7] (10 μM, 6-OHDA 25 µM, 24 h, * p < 0.05), the “Significance of effect on viability of 6-OHDA-treated cells” value is on record as “The reliable effect was revealed”. In addition, the “Toxicity to Neuro2a cells” value in series [7] (10 μM, MTT) is “non-toxic”. In addition, in series [7] (6-OHDA 25 µM, 24 h, MTT), the “Concentration of maximum cytoprotective activity” value came to 10 µM and the “Dose-response of cytoprotective effect” value is reported as “linear dose-dependent character”. In addition, in [8], the “Activity on Kv1.5” value is “neither 10 μM of rHCIQ2c1 nor rHCIQ4c7 exerted any activity on the Kv channels”. For the same substance, the “Activity on Kv1.6” value in [9] is given as “neither 10 μM of rHCIQ2c1 nor rHCIQ4c7 exerted any activity on the Kv channels”. Besides, in series [10], the “SPR binding to kallikrein (in words)” value was “specifically binds to all target proteinases”. Moreover, the “KA, association constant” value in series [10] (kallikrein, SPR Biacore 3000, peptide immobilized on CM4 chip, HBS pH 7.4, 25 °C) is 2.04e+06 M⁻¹. In [10] (setting [12]), the “ka, association rate constant” value came to 49400 s/M and the “kd, dissociation rate constant” value was determined as 0.00379 s⁻¹.

As to “rHCIQ4c7: recombinant Kunitz-peptide of Heteractis crispa, isoform with the rare substitution Gly17Glu”, in series [1] (SPR, 25 °C), the “KD with elastase relative to rHCIQ2c1” value is on record as “binding with elastase differed insignificantly”. Moreover, the “SPR binding to neutrophil elastase (in words)” value in series [1] (SPR) was “bounds to trypsin and elastase only”. Further, in series [1] (setting [11]), the “KA, association constant” value was 1.05e+06 M⁻¹; the “ka, association rate constant” value amounted to 11900 s/M; the “kd, dissociation rate constant” value was 0.0114 s⁻¹. Also, the Kd in series [1] (neutrophil elastase, SPR Biacore 3000, peptide immobilized on CM4 chip, HBS pH 7.4, 25 °C, read-out: KD, dissociation constant) was found to be 955 nM. Moreover, the “Activity on Shaker IR” value in series [2] is “neither 10 μM of rHCIQ2c1 nor rHCIQ4c7 exerted any activity on the Kv channels”. In addition, the “Activity on Kv1.1” value in series [3] is on record as “neither 10 μM of rHCIQ2c1 nor rHCIQ4c7 exerted any activity on the Kv channels”. Besides, in series [4], the “Activity on hERG” value was “neither 10 μM of rHCIQ2c1 nor rHCIQ4c7 exerted any activity on the Kv channels”. The “Activity on Kv1.2” value in [5] is reported as “neither 10 μM of rHCIQ2c1 nor rHCIQ4c7 exerted any activity on the Kv channels”. Also, the “Activity on Kv1.4” value in series [6] is given as “neither 10 μM of rHCIQ2c1 nor rHCIQ4c7 exerted any activity on the Kv channels”. Moreover, in series [7] (24 h, MTT), the “Increase of cell viability relative to cells treated with 6-OHDA” value is 14%. For the same substance, the “Toxicity to Neuro2a cells” value in series [7] (10 μM, MTT) is given as “non-toxic”. In addition, the “Activity on Kv1.5” value in [8] is “neither 10 μM of rHCIQ2c1 nor rHCIQ4c7 exerted any activity on the Kv channels”. Besides, in series [9], the “Activity on Kv1.6” value is listed as “neither 10 μM of rHCIQ2c1 nor rHCIQ4c7 exerted any activity on the Kv channels”. Moreover, the “SPR binding to kallikrein (in words)” value in series [10] was “bounds to trypsin and elastase only”.

By Kd is commonly meant the equilibrium constant for the complex coming apart.

The values above are taken from paper PMC7060258 (Scientific Reports, 2020).
